What was measured:
[1] = test system: Brain microsomal fractions; experiment: in vitro Anti-lipid peroxidation effect (TBAR production, Fe3+-ADP/NADPH); format: biochemical, rat (SD strain, male)
Method: 1. in vitro Anti-lipid peroxidation effect
Brain microsomal fractions were prepared from male rats of SD strain, and a portion (0.2 mg protein) was incubated at 37° C. for 15 minutes with a mixture of Fe^3+ (0.1 mM)--ADP (0.5 mM) in the presence or absence of the test compound, in final volume of 1 ml of 10 mM HEPES, 150 mM KCl, 0.2 mM NADPH, pH 7.4. After incubation, 1.5 ml of TCA-TBA-HCl reagent (16.7% trichloroacetic acid, 0.4% thiobarbituric acid, 0.278N hydrochloric acid) was added and the reaction mixture was heated in a boiling water for 15 minutes. After cooling in ice-bath, the reaction mixture was centrifuged, and the absorbance of the supernatant at 535 nm was measured. The amount of thiobarbituric acid reactive substance (TBAR) was obtained by calculation using an extinction coefficient of 1.56×10^5 […]. […] The results are shown in Table 1A for compounds of the formulas IA, IB, and IC, respectively. The compounds with highest inhibition rate have the greatest anti-lipid peroxidation effect.

[2] = test system: pig right coronary artery; experiment: in vitro Ca-antagonism (high K+ induced 45Ca-influx); format: cell-based; conditions: Sus scrofa, K+ 75 mM
Method: 2. in vitro Ca-antagonism
A strip of pig right coronary artery was depolarized with high K^+ (75 mM) for 30 minutes to induce voltage dependent ^45 Ca-influx. The extracellular ^45 Ca was chelated by adding EGTA and removed by washing, then the strip was lysed at 100° C. ^45 Ca in this lysate was measured as intracellular ^45 Ca by a scintillation counter. The concentration of the test compound was 10^-7, 10^-6, 10^-5 M, and applied until depolarization by K^+ was completed. Ratio of inhibition at various concentrations of the test compounds for increasing the intracellular ^45 Ca by K^+ was determined. The compound with high inhibition ratio has strong Ca-antagonism.

Row | Structure (SMILES) | Anti-Lipid Peroxidation (% inhibition) 10 μM [1] [%] | Anti-Lipid Peroxidation (% inhibition) 50 μM [1] [%] | inhibition at 10 µM [2] [%]
1 | CC(C)c1ccc(CN2CCN(C(c3ccc(F)cc3)c3ccc(F)cc3)CC2)c(=O)c(NCCNc2ncccn2)c1 [Compound 10C, 7-[4-(4,4'-difluorobenzhydryl)piperazino-1-methyl]-4-isopropyl-2-[N-2-(2-pyrimidylamino)ethylamino]-2,4,6-cycloheptatrien-1-one] | 46.3 | 92.5 | 65
2 | CC(C)c1ccc(CN2CCN(C(c3ccc(F)cc3)c3ccc(F)cc3)CC2)c(=O)c(NCCCN(C)C)c1 [Compound 2C, 7-[4-(4,4'-difluorobenzhydryl)piperazino-1-methyl]-2-(N-3-dimethylaminopropylamino)-4-isopropyl-2,4,6-cycloheptatrien-1-one] | 29.6 | 90.8 | 63
3 | CC(C)c1ccc(CN2CCN(C(c3ccc(F)cc3)c3ccc(F)cc3)CC2)c(=O)c(N(C)CCN(C)C)c1 [Compound 5C, 7-[4-(4,4'-difluorobenzhydryl)piperazino-1-methyl]-2-(N-2-dimethylaminoethyl-N-methylamino)-4-isopropyl-2,4,6-cycloheptatrien-1-one] | 32.2 | 90.6 | 94
4 | CC(C)c1ccc(CN2CCN(C(c3ccc(F)cc3)c3ccc(F)cc3)CC2)c(=O)c(N2CCNCC2)c1 [Compound 19C, 7-[4-(4,4'-difluorobenzhydryl)piperazino-1-methyl]-4-isopropyl-2-(1-piperazino)-2,4,6-cycloheptatrien-1-one] | 30.1 | 89.1 | 62
5 | CC(C)c1ccc(CN2CCN(C(c3ccc(F)cc3)c3ccc(F)cc3)CC2)c(=O)c(NCCNc2ccccn2)c1 [Compound 9C, 7-[4-(4,4'-difluorobenzhydryl)piperazino-1-methyl]-4-isopropyl-2-[N-2-(2-pyridylamino)ethylamino]-2,4,6-cycloheptatrien-1-one] | 88.1 | 91.6 | 38
6 | CCCCC(c1ccc(C(C)C)cc(OC)c1=O)N1CCN(C(c2ccccc2)c2ccc(Cl)cc2)CC1 (stereo not drawn) [Compound 5A] | 30.5 | 38.7 | 19
7 | CC(C)c1ccc(CN2CCN(C(c3ccc(F)cc3)c3ccc(F)cc3)CC2)c(=O)c(N2CCCCC2)c1 [Compound 17C, 7-[4-(4,4'-difluorobenzhydryl)piperazino-1-methyl]-4-isopropyl-2-piperidino-2,4,6-cycloheptatrien-1-one] | 32.4 | 44.1 | 53
8 | COc1cc(C(C)C)ccc(CN2CCN(C(c3ccccc3)c3ccc(C(F)(F)F)cc3)CC2)c1=O (stereo not drawn) [Compound 9A, 4-isopropyl-2-methoxy-7-[4-(4-trifluoromethylbenzhydryl)piperazino-1-methyl]-2,4,6-cycloheptatrien-1-one] | 29.2 | 88.1 | 45
9 | CCOC(=O)CCNc1cc(C(C)C)ccc(CN2CCN(C(c3ccc(F)cc3)c3ccc(F)cc3)CC2)c1=O [Compound 16C, ethyl 3-{N-7-[4-(4,4'-difluorobenzhydryl)piperazino-1-methyl]-4-isopropyl-1-oxo-2,4,6-cycloheptatrien-2-ylamino}propionate] | 29.1 | 58.0 | 47
10 | COc1cc(C(C)C)ccc(CN2CCN(C(c3ccccc3)c3ccccc3)CC2)c1=O [Compound 6A, 7-(4-benzhydrylpiperazino-1-methyl)-4-isopropyl-2-methoxy-2,4,6-cycloheptatrien-1-one] | 15.9 | 63.2 | 100
11 | CCN(CC)CCNc1cc(C(C)C)ccc(CN2CCN(C(c3ccc(F)cc3)c3ccc(F)cc3)CC2)c1=O [Compound 7C, 2-(N-2-diethylaminoethylamino)-7-[4-(4,4'-difluorobenzhydryl)piperazino-1-methyl]-4-isopropyl-2,4,6-cycloheptatrien-1-one] | 21.3 | 90.4 | 67
12 | CNCCNc1cc(C(C)C)ccc(CN2CCN(C(c3ccc(F)cc3)c3ccc(F)cc3)CC2)c1=O [Compound 3C, 7-[4-(4,4'-difluorobenzhydryl)piperazino-1-methyl]-4-isopropyl-2-(N-2-methylaminoethylamino)-2,4,6-cycloheptatrien-1-one] | 88.0 | 91.6 | 49
13 | COc1cc(C(C)C)ccc(CN2CCN(C(c3ccc(C(F)(F)F)cc3)c3ccc(C(F)(F)F)cc3)CC2)c1=O [Compound 8A, 7-{4-[4,4'-di(trifluoromethyl)benzhydryl]piperazino-1-methyl}-4-isopropyl-2-methoxy-2,4,6-cycloheptatrien-1-one] | 32.3 | 51.8 | 27
14 | CC(C)c1ccc(CN2CCN(C(c3ccc(F)cc3)c3ccc(F)cc3)CC2)c(=O)c(OCc2ccccc2)c1 [Compound 15A, 2-benzyloxy-7-[4-(4,4'-difluorobenzhydryl)piperazino-1-methyl]-4-isopropyl-2,4,6-cycloheptatrien-1-one] | 22.4 | 29.0 | 20
15 | COc1ccc(CCOc2cc(C(C)C)ccc(CN3CCN(C(c4ccc(F)cc4)c4ccc(F)cc4)CC3)c2=O)cc1OC [Compound 16A, 7-[4-(4,4'-difluorobenzhydryl)piperazino-1-methyl]-2-[2-(3,4-dimethoxyphenyl)ethoxy]-4-isopropyl-2,4,6-cycloheptatrien-1-one] | 19.1 | 19.1 | 52
16 | CC(C)c1ccc(CN2CCN(C(c3ccc(F)cc3)c3ccc(F)cc3)CC2)c(=O)c(NCCNCCN)c1 [Compound 8C, 2-[N-2-(N'-2-aminoethylamino)ethylamino]-7-[4-(4,4'-difluorobenzhydryl)piperazino-1-methyl]-4-isopropyl-2,4,6-cycloheptatrien-1-one] | 33.1 | 92.2 | 60
17 | COC(=O)CNc1cc(C(C)C)ccc(CN2CCN(C(c3ccc(F)cc3)c3ccc(F)cc3)CC2)c1=O [Compound 15C, methyl 2-{N-7-[4-(4,4'-difluorobenzhydryl)piperazino-1-methyl]-4-isopropyl-1-oxo-2,4,6-cycloheptatrien-2-ylamino}acetate] | 38.6 | 79.8 | 92
18 | CCNc1cccnc1N1CCN(c2cc(C(C)C)ccc(CN3CCN(C(c4ccc(F)cc4)c4ccc(F)cc4)CC3)c2=O)CC1 [Compound 20C, 7-[4-(4,4'-difluorobenzhydryl)piperazino-1-methyl]-2-[4-(3-ethylamino-2-pyridyl)piperazino]-4-isopropyl-2,4,6-cycloheptatrien-1-one] | 91.6 | 93.8 | 30
19 | CC(C)c1ccc(CN2CCN(C(c3ccc(F)cc3)c3ccc(F)cc3)CC2)c(=O)c(NCc2ccccn2)c1 [Compound 12C, 7-[4-(4,4'-difluorobenzhydryl)piperazino-1-methyl]-4-isopropyl-2-(N-2-pyridylmethylamino)-2,4,6-cycloheptatrien-1-one] | 86.4 | 89.3 | 47
20 | COc1cc(C(C)C)ccc(CN2C(C)CN(C(c3ccc(F)cc3)c3ccc(F)cc3)CC2C)c1=O (stereo not drawn) [Compound 21C, 7-[4-(4,4'-difluorobenzhydryl)-2,6-dimethylpiperazino-1-methyl]-4-isopropyl-2-methoxy-2,4,6-cycloheptatrien-1-one] | 47.8 | 89.9 | 42
